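In this assay, cells in 96-well plates receive the compound at five concentrations for 48 hours. Endpoints are linearly interpolated between the surrounding concentrations. GI50 = concentration required for 50% inhibition of growth.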 Activity calls are given as the source filed them. Cut-off read from the data, not from the text of the source: active = GI50 up to about 1.1 µM and inactive = higher.

Among the test systems are A498; NCI-H460; OVCAR-5; CCRF-CEM; SK-MEL-28; NCI-H226; OVCAR-3; A549; ACHN; Malme-3M; HOP-62; U-251; TK-10; OVCAR-8; SNB-19; NCI-H522; SR.
What all share (assay): inhibition of tumour cell growth, NCI panel, 48 h

For the molecule `CC(C)(C)C(=O)ON1N=NC2C3CC(OCc4ccccc4)(OCc4ccccc4)C(O3)C21` (stereo unspecified), the GI50 was 35.7 µM (inactive) in the assay with A498; 24 µM (inactive) with NCI-H460; 33.6 µM (inactive) in the assay on OVCAR-5; 4.4 µM (inactive) in the assay on CCRF-CEM; 19.1 µM (inactive) with SK-MEL-28; 17.7 µM (inactive) in the assay on NCI-H226. For the same molecule, the GI50 is 16.9 µM (inactive) in the assay with OVCAR-3; 32.7 µM (inactive) with A549; 27.7 µM (inactive) with ACHN; 16.3 µM (inactive) in the assay with Malme-3M; 28.3 µM (inactive) in the assay on HOP-62; 16.9 µM (inactive) in the assay on U-251.

On to `N#CC(C(=O)CCC(=O)Nc1cccc(C(F)(F)F)c1)c1ccccc1` (stereo unspecified), for which the GI50 in the assay with A498, in the assay on NCI-H460, in the assay on OVCAR-5, with CCRF-CEM, in the assay on TK-10 and in the assay with OVCAR-8 was > 100 µM (inactive) throughout. Besides, the GI50 in the assay on SK-MEL-28, in the assay with NCI-H226, in the assay with OVCAR-3, in the assay with A549, in the assay with ACHN and in the assay with Malme-3M was > 100 µM (inactive) in each case. Also, the GI50 with SNB-19, in the assay with HOP-62, with U-251 and with NCI-H522 was > 100 µM (inactive) each time.

For `COc1cc(/C=C/c2csnn2)cc(OC)c1OC`, the GI50 in the assay on NCI-H460, in the assay with OVCAR-5, in the assay on CCRF-CEM, in the assay with TK-10, in the assay on OVCAR-8 and in the assay on SK-MEL-28 was > 100 µM (inactive) in each case. The GI50 with NCI-H226 was > 100 µM (inactive); in the assay with OVCAR-3, > 100 µM (inactive); in the assay on A549 it was > 100 µM (inactive); with ACHN, 78.3 µM (inactive); in the assay on Malme-3M, > 100 µM (inactive); in the assay with SNB-19, > 100 µM (inactive). In addition, the GI50 with HOP-62, in the assay on U-251, with SR and in the assay with NCI-H522 was > 100 µM (inactive) in each case.

In the case of `CCO/C([O-])=C(/C=O)[n+]1c(C)n(C)c2ccccc21`, the GI50 with A498, with NCI-H460, with OVCAR-5, in the assay on CCRF-CEM, with TK-10 and in the assay on OVCAR-8 was > 100 µM (inactive) in each case. Moreover, the GI50 in the assay with SK-MEL-28, in the assay on NCI-H226, with OVCAR-3, in the assay with A549, in the assay on Malme-3M and with SNB-19 was > 100 µM (inactive) in each case. Also, the GI50 in the assay on HOP-62, with U-251 and with NCI-H522 was > 100 µM (inactive) in each case.

As to `CN(C)CCNC(=O)c1cccc2nc3ccc4cccnc4c3nc12`, the GI50 was 0.214 µM (active) in the assay with A498; 0.0565 µM (active) with NCI-H460; 0.916 µM (active) in the assay with OVCAR-5; 0.213 µM (active) in the assay on CCRF-CEM; 0.107 µM (active) in the assay with TK-10; 0.194 µM (active) with OVCAR-8. Also, the GI50 in the assay on SK-MEL-28 is 0.944 µM (active); in the assay on NCI-H226 it was 0.319 µM (active); in the assay with OVCAR-3, 0.61 µM (active); with A549 it was 0.284 µM (active); with ACHN it was 0.126 µM (active); in the assay on SNB-19 it was 0.362 µM (active). In addition, the GI50 is 0.393 µM (active) in the assay on HOP-62 and 0.405 µM (active) in the assay on U-251.

As to `O=C(CC1(O)C(=O)Nc2ccccc21)c1ccc(O)cc1O` (stereo unspecified), the GI50 in the assay on A498, in the assay on NCI-H460, in the assay with OVCAR-5, in the assay with TK-10, with OVCAR-8 and with SK-MEL-28 was > 100 µM (inactive) in each case. In addition, the GI50 in the assay with NCI-H226, in the assay with OVCAR-3, in the assay on A549, in the assay on ACHN, with Malme-3M and in the assay with SNB-19 was > 100 µM (inactive) throughout. Besides, the GI50 in the assay on HOP-62 and in the assay with NCI-H522 was > 100 µM (inactive) each time.

For `CC(=O)NC(CCCCN(Cc1ccccc1)C(=O)NCCCl)C(=O)NCc1ccccc1` (stereo unspecified), the GI50 in the assay on NCI-H460, in the assay on CCRF-CEM, in the assay on OVCAR-8, in the assay on SK-MEL-28, with NCI-H226 and in the assay with OVCAR-3 was > 100 µM (inactive) in each case. Also, the GI50 with A549, with ACHN, in the assay on Malme-3M, in the assay with SNB-19, in the assay on HOP-62 and with U-251 was > 100 µM (inactive) each time. In addition, the GI50 with SR and in the assay on NCI-H522 was > 100 µM (inactive) throughout.

Consider `CCOc1cccc2c1N[S@@](=O)S2`, for which the GI50 with CCRF-CEM was 40.6 µM (inactive); in the assay on TK-10, > 100 µM (inactive); in the assay with SK-MEL-28, > 100 µM (inactive); in the assay on NCI-H226, > 100 µM (inactive); in the assay with OVCAR-3, > 100 µM (inactive); with A549, > 100 µM (inactive). In addition, the GI50 was > 100 µM (inactive) in the assay on ACHN; > 100 µM (inactive) with Malme-3M; 59.2 µM (inactive) in the assay on SNB-19; 47.8 µM (inactive) in the assay on U-251; 74.8 µM (inactive) in the assay with SR; 55.5 µM (inactive) in the assay on NCI-H522.

Take `NC1CCCCC1.O=P(O)(O)C1(P(=O)(O)O)CC1`: the GI50 in the assay on A498, in the assay on NCI-H460, in the assay with OVCAR-5, with CCRF-CEM, in the assay with TK-10 and in the assay with OVCAR-8 was > 100 µM (inactive) throughout. In addition, the GI50 with SK-MEL-28, with NCI-H226, in the assay with OVCAR-3, in the assay on A549, in the assay on ACHN and in the assay with Malme-3M was > 100 µM (inactive) throughout. Besides, the GI50 in the assay with SNB-19, in the assay with HOP-62, in the assay with U-251 and in the assay with NCI-H522 was > 100 µM (inactive) throughout.

On to `CN[C@@H](C)[C@H](N)c1ccccc1`, for which the GI50 in the assay on A498, in the assay with NCI-H460, with CCRF-CEM, in the assay with TK-10, in the assay on OVCAR-8 and in the assay on SK-MEL-28 was > 100 µM (inactive) throughout. Besides, the GI50 in the assay on NCI-H226, in the assay on OVCAR-3, in the assay on A549, in the assay with ACHN, in the assay on U-251 and in the assay with NCI-H522 was > 100 µM (inactive) each time.
